The text below walks through data of US6995263B2, “Indolyl and dihydroindolyl derivatives, their manufacture and use as pharmaceutical agents” (Hoffmann-La Roche Inc., priority 2003, dated 2006).

In one assay the target is T1, PPARγ (Mus musculus, UniProt P37238).
T1 construct: PPARγ (aa 174 to 476); made in house; host or cells: E. coli BL21(pLysS)
T1 sequence (P37238 174-475 isoform P37238-2): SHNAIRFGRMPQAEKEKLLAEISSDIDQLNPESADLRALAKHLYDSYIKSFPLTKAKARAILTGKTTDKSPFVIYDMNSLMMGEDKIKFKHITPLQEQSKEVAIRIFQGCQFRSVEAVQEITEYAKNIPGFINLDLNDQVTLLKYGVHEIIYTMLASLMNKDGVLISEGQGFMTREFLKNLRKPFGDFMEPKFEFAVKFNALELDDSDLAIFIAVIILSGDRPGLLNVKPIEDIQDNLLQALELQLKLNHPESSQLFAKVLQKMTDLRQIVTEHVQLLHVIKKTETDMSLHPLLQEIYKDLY
As to the kind of experiment: Radioligand binding assay (SPA), PPARγ receptor binding. To be noted: GST-PPARγ-LBD fusion protein, scintillation proximity counting. The source says:
(§1) Background information on the performed assays can be found in: Nichols J S et al. “Development of a scintillation proximity assay for peroxisome proliferator-activated receptor gamma ligand binding domain”, (1998) Anal. Biochem. 257:112–119.
(§2) Full-length cDNA clones for humans PPARδ and PPARα and mouse PPARγ were obtained by RT-PCR from human adipose and mouse liver cRNA, respectively, cloned into plasmid vectors and verified by DNA sequencing. Bacterial and mammalian expression vectors were constructed to produce glutathione-s-transferase (GST) and Gal4 DNA binding domain proteins fused to the ligand binding domains (LBD) of PPARδ (aa 139 to 442), PPARγ (aa 174 to 476) and PPARα (aa 167 to 469). To accomplish this, the portions of the cloned sequences encoding the LBDs were amplified from the full-length clones by PCR and then subcloned into the plasmid vectors. Final clones were verified by DNA sequence analysis.
(§3) Induction, expression, and purification of GST-LBD fusion proteins were performed in E. coli strain BL21(pLysS) cells by standard methods (Ref: Current Protocols in Molecular Biology, Wiley Press, edited by Ausubel et al.).
(§4) PPARγ receptor binding was assayed in TKE50 (50 mM Tris-HCl, pH 8, 50 mM KCl, 2 mM EDTA, 0.1 mg/ml fatty acid-free BSA and 10 mM DTT). For each 96 well reaction an 140 ng equivalent of GST-PPARγ-LBD fusion protein was bound to 10 μg SPA beads (PharmaciaAmersham) in a final volume of 50 ul by shaking. The resulting slurry was incubated for 1 h at RT and centrifuged for 2 min at 1300 g. The supernatant containing unbound protein was removed and the semidry pellet containing the receptor-coated beads was resolved in 50 ul of TKE. […] All binding assays were performed in 96 well plates and the amount of bound ligand measured on a Packard TopCount using OptiPlates (Packard). Nonspecific binding was determined in the presence of 10^−4 M unlabelled compound. […]
For orientation: In a scintillation proximity assay essentially only radioactivity close to the scintillant gives light.

In another assay the target is T2, PPARδ (Homo sapiens, UniProt Q03181).
T2 construct: PPARδ (aa 139 to 442); made in house; host or cells: E. coli BL21(pLysS)
T2 sequence (Q03181 139-441 limits assumed): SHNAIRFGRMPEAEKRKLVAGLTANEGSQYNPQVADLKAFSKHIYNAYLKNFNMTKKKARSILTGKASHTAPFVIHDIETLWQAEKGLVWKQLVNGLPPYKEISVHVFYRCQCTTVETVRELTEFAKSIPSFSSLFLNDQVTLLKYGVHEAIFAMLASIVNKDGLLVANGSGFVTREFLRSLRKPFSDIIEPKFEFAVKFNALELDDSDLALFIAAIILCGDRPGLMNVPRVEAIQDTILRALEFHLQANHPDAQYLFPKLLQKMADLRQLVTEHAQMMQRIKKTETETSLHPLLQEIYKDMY
Kind of assay: Radioligand binding assay (SPA), PPARδ receptor binding. The following applies: GST-PPARδ-LBD fusion protein, scintillation proximity counting.
Excerpt: as §1, §2, §3
PPARδ receptor binding was assayed in HNM10 (50 mM Hepes, pH 7.4, 10 mM NaCl, 5 mM MgCl2, 0.15 mg/ml fatty acid-free BSA and 15 mM DTT). For each 96 well reaction a 500 ng equivalent of GST-PPARδ-LBD fusion protein and radioligand, e.g. 20000 dpm {2-methyl-4-[4-methyl-2-(4-trifluoromethyl-phenyl)-thiazol-5-yl-ditritiomethylsulfanyl]-phenoxy}-acetic acid, was bound to 10 μg SPA beads (PharmaciaAmersham) in a final volume of 50 μl by shaking. The resulting slurry was incubated for 1 h at RT and centrifuged for 2 min at 1300 g. […] Radioligand was added and the reaction incubated at RT for 1 h and scintillation proximity counting performed in the presence of test compounds was determined. All binding assays were performed in 96 well plates and the amount of bound ligand was measured on a Packard TopCount using OptiPlates (Packard). […]

The next assay concerns the target T3, PPARα (Homo sapiens, UniProt Q07869).
T3 construct: PPARα (aa 167 to 469); made in house; host or cells: E. coli BL21(pLysS)
T3 sequence (Q07869 167-468 limits assumed): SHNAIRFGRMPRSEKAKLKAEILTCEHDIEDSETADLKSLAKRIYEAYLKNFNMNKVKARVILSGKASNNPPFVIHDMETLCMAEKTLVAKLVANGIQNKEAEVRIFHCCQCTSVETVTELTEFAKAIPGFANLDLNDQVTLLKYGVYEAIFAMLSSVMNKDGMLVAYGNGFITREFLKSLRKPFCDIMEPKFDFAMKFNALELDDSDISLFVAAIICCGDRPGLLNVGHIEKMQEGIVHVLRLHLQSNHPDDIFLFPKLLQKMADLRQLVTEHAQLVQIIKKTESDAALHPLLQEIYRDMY
Kind of assay: Radioligand binding assay (SPA), PPARα receptor binding. To be noted: GST-PPARα-LBD fusion protein, scintillation proximity counting.
Excerpt: as §1, §2, §3
as §4, with “PPARα receptor” for “PPARγ receptor”, “of GST-PPARα-LBD” for “of GST-PPARγ-LBD”, “50 μl” for “50 ul”

Molecules are shown by their SMILES.

With `Cc1nc(-c2ccc(C(F)(F)F)cc2)ncc1COc1ccc2c(ccn2CC(=O)O)c1` [Example 2, {5-[4-Methyl-2-(4-trifluoromethyl-phenyl)-pyrimidin-5-ylmethoxy]-indol-1-yl}-acetic acid], the values for the IC50 at PPARγ, at PPARδ and at PPARα were greater than 10000 nM, 83 nM and 1320 nM, respectively.

For `Cc1nc(-c2ccc(C(F)(F)F)cc2)ccc1COc1ccc2c(c1)N(CC(=O)O)CC2` [Example 6, {6-[2-Methyl-6-(4-trifluoromethyl-phenyl)-pyridin-3-ylmethoxy]-2,3-dihydro-indol-1-yl}-acetic acid], the results for the IC50 at PPARγ, on PPARδ and on PPARα were greater than 10000 nM, 17 nM and 1580 nM, respectively.

Regarding `O=C(O)Cn1ccc2ccc(OCc3cnc(-c4ccc(C(F)(F)F)cc4)nc3C3CC3)cc21` [Example 7, {6-[4-Cyclopropyl-2-(4-trifluoromethyl-phenyl)-pyrimidin-5-ylmethoxy]-indol-1-yl}-acetic acid], the IC50 on PPARγ is greater than 10000 nM; on PPARδ it was 1 nM; on PPARα it was 211 nM.

For orientation: IC50 means the concentration needed to halve the response being measured. Lower therefore signals greater potency.
